What all share (assay type): cell-based
Experiment [1] deals with T1, human TLR7 (Homo sapiens, UniProt Q9NYK1).
T1 construct: host or cells: HEK-Blue cells
T1 sequence (Q9NYK1 27-1049): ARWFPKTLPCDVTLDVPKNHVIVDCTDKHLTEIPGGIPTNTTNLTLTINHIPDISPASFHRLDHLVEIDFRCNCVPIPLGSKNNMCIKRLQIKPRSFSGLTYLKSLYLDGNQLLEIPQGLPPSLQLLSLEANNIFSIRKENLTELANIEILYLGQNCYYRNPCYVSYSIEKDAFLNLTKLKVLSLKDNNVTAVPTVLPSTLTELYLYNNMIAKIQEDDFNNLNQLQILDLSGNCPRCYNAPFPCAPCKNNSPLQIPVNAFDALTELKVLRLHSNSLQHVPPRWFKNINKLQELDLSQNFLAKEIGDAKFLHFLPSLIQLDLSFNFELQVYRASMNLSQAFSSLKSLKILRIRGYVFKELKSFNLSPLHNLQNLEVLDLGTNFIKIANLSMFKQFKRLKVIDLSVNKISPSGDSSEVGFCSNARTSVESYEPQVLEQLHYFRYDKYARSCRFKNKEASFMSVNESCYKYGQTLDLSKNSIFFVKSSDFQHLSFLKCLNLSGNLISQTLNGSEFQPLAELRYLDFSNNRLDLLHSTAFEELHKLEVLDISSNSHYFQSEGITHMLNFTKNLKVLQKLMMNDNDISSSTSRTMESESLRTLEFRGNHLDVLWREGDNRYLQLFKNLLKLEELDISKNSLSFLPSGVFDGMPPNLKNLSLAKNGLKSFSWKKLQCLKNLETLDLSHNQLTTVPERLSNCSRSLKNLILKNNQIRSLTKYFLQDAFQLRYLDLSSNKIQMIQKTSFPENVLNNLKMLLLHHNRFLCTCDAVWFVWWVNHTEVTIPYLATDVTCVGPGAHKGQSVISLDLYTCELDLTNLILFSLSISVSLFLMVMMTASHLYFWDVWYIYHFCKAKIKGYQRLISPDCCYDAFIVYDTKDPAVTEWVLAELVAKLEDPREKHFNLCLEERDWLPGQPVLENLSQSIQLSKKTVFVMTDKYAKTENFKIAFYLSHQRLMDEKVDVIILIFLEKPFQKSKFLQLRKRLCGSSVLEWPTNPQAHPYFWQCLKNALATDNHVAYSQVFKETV
As to the kind of experiment: TLR7 inhibition reporter assay (HEK-Blue SEAP). Conditions: HEK-Blue cells overexpressing human TLR7, stimulated with gardiquimod 7.5 μM, 22 hour incubation. The method, boiled down: (§1)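 Test compounds, final 0.05 nM–50 μM, pre-treat HEK-Blue human TLR7, TLR8 or TLR9 reporter cells before agonist addition (TLR8 R848 15.9 μM; TLR7 gardiquimod 7.5 μM; TLR9 ODN2006 5 nM). Incubation runs 22 h, 37 °C. SEAP detection gives percent inhibition against DMSO and reference-inhibitor controls.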
In general terms: A reporter such as luciferase makes a cellular process visible.

In experiment [2] the target is T2, human TLR8 (Homo sapiens, UniProt Q9NR97).
T2 construct: host or cells: HEK-Blue cells
T2 sequence (Q9NR97 27-1041): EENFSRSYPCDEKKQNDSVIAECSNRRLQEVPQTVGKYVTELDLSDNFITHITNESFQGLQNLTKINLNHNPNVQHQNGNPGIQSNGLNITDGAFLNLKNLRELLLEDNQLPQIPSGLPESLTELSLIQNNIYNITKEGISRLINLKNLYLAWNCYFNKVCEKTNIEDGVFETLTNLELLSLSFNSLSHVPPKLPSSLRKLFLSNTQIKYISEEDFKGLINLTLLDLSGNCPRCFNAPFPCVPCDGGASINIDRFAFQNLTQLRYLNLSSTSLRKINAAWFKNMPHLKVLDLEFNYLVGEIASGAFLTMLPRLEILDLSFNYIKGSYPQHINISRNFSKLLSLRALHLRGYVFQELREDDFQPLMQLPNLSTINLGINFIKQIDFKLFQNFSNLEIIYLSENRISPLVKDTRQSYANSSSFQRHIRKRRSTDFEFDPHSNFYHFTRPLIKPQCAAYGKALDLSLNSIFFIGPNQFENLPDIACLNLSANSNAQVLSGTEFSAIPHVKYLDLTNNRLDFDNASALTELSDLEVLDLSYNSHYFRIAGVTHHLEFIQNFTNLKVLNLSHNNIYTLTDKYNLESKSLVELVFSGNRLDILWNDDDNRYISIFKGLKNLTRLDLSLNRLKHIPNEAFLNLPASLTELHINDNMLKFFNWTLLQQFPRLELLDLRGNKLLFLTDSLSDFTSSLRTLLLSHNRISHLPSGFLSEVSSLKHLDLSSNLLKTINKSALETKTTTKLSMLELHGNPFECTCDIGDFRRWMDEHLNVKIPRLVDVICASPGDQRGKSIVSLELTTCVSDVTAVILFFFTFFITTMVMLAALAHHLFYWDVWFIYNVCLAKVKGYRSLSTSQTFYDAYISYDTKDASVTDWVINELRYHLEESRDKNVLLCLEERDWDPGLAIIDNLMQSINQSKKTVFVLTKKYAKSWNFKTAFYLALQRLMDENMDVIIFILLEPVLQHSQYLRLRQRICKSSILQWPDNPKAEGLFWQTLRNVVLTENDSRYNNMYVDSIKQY
As to the kind of experiment: TLR8 inhibition reporter assay (HEK-Blue SEAP). To be noted: HEK-Blue cells overexpressing human TLR8, stimulated with R848 15.9 μM, 22 hour incubation. The method, boiled down:
as §1

Experiment [3] concerns the target T3, human TLR9 (Homo sapiens, UniProt Q9NR96).
T3 construct: host or cells: HEK-Blue cells
T3 sequence (Q9NR96 26-1032): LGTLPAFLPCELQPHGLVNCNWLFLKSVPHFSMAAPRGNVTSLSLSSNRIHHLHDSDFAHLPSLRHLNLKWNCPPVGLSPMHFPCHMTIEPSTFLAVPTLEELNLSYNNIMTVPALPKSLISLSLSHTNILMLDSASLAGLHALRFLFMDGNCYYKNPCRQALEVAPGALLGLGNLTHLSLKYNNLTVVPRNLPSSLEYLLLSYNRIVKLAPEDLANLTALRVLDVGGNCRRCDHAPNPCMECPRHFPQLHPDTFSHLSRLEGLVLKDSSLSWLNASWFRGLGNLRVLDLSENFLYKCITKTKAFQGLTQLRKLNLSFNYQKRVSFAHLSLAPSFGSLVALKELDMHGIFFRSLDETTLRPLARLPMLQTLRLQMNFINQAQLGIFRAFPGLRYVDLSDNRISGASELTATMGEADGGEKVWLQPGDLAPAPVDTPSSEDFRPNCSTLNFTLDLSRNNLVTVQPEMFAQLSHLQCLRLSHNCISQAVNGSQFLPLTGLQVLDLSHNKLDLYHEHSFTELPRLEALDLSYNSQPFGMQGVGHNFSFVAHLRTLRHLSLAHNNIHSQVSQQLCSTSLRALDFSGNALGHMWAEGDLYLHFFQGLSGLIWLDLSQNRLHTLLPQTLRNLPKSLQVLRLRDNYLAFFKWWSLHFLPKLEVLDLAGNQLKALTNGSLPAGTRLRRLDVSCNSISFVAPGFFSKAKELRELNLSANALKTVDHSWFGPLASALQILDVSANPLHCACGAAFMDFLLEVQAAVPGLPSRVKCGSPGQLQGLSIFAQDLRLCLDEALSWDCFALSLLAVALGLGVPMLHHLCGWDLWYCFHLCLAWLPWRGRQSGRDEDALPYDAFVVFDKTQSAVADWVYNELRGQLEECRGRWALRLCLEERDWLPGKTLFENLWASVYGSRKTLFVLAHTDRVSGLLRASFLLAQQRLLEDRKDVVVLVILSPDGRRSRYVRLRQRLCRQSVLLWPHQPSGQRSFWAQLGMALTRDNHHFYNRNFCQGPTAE
As to the kind of experiment: TLR9 inhibition reporter assay (HEK-Blue SEAP). Conditions: HEK-Blue cells overexpressing human TLR9, stimulated with ODN2006 5 nM, 22 hour incubation. The method, boiled down:
as §1

This note sets out measurements from US12030878B2 (BRISTOL-MYERS SQUIBB COMPANY, priority 2017, dated 2024).

Consider `Cc1cc(-c2[nH]c3ccc(OCC4CCN(CCS(C)(=O)=O)CC4)cc3c2C(C)C)cn2ncnc12` [Example 91, 6-(3-isopropyl-5-((1-(2-(methylsulfonyl)ethyl)piperidin-4-yl)methoxy)-1H-indol-2-yl)-8-methyl-[1,2,4]triazolo[1,5-a]pyridine], for which the IC50 (in general, the point on the concentration scale where inhibition reaches its midpoint) in experiment [1] is 0.7 nM; in experiment [2] it was 1 nM; in experiment [3], 9580 nM.

`Cc1cc(-c2[nH]c3ccc(OCC4CN(CCS(C)(=O)=O)C4)cc3c2C(C)C)cn2ncnc12` [Example 92, 6-(3-isopropyl-5-((1-(2-(methylsulfonyl)ethyl)azetidin-3-yl)methoxy)-1H-indol-2-yl)-8-methyl-[1,2,4]triazolo[1,5-a]pyridine]: the IC50 in experiment [1] amounted to 1.2 nM; in experiment [2], 3.8 nM; in experiment [3], 6040 nM.

On to `Cc1cc(-c2[nH]c3ccc(OCC4CCCNC4)cc3c2C(C)C)cc(C)n1` (stereo not drawn) [Example 94, 2-(2,6-dimethylpyridin-4-yl)-3-isopropyl-5-(piperidin-3-ylmethoxy)-1H-indole], for which the figures for the IC50 in experiment [1], in experiment [2] and in experiment [3] were 3 nM, 4.7 nM and 243 nM, respectively.

In the case of `Cc1cc(-c2[nH]c3ccc(OC4CCN(C(=O)CN(C)C)CC4)cc3c2C(C)C)cc(C)n1` [Example 95, 2-(dimethylamino)-1-(4-((2-(2,6-dimethylpyridin-4-yl)-3-isopropyl-1H-indol-5-yl)oxy)piperidin-1-yl)ethanone], the IC50 in experiment [1] was determined as 0.5 nM; in experiment [2], 10.4 nM; in experiment [3] it was 419 nM.

As to `Cc1cc(-c2[nH]c3ccc(OCC4CCN(C(=O)CN(C)C)CC4)cc3c2C(C)C)cc(C)n1` [Example 96, 2-(dimethylamino)-1-(4-(((2-(2,6-dimethylpyridin-4-yl)-3-isopropyl-1H-indol-5-yl)oxy)methyl)piperidin-1-yl)ethan-1-one], the IC50 in experiment [1] came to 2.6 nM; in experiment [2] it was 9.8 nM; in experiment [3], 346 nM.

Take `Cc1cc(-c2[nH]c3ccc(OCC4CCN(C(=O)CN(C)C)CC4)cc3c2C(C)C)cn(C)c1=O` [Example 97, 5-(5-((1-(dimethylglycyl)piperidin-4-yl)methoxy)-3-isopropyl-1H-indol-2-yl)-1,3-dimethylpyridin-2(1H)-one]: the figures for the IC50 in experiment [1], in experiment [2] and in experiment [3] were 3.5 nM, 5.6 nM and 16800 nM, respectively.

As for `Cc1cc(-c2[nH]c3ccc(O[C@H]4CCCN(C(=O)CN(C)C)C4)cc3c2C(C)C)cn(C)c1=O` [Example 98, (S)-5-(5-((1-(dimethylglycyl)piperidin-3-yl)oxy)-3-isopropyl-1H-indol-2-yl)-1,3-dimethylpyridin-2(1H)-one], the IC50 was found to be 7.6 nM in experiment [1], 16.5 nM in experiment [2] and 11100 nM in experiment [3].

As for `Cc1cc(-c2[nH]c3ccc(O[C@H]4CCCN(C(=O)CN(C)C)C4)cc3c2C(C)C)cn2ncnc12` [Example 99, (S)-2-(dimethylamino)-1-(3-((3-isopropyl-2-(8-methyl-[1,2,4]triazolo[1,5-a]pyridin-6-yl)-1H-indol-5-yl)oxy)piperidin-1-yl)ethan-1-one], the results for the IC50 in experiment [1], in experiment [2] and in experiment [3] were 3.1 nM, 25.2 nM and 4870 nM, respectively.

In the case of `Cc1cc(-c2[nH]c3ccc(OC4CCN(C(=O)CN(C)C)CC4)cc3c2C(C)C)cn(C)c1=O` [Example 100, 5-(5-((1-(dimethylglycyl)piperidin-4-yl)oxy)-3-isopropyl-1H-indol-2-yl)-1,3-dimethylpyridin-2(1H)-one], the IC50 came to 4.1 nM in experiment [1], 10.4 nM in experiment [2] and 9840 nM in experiment [3].

Turning to `Cc1cc(-c2[nH]c3ccc(OC4CCN(C(=O)CN(C)C)CC4)cc3c2C(C)C)cn2ncnc12` [Example 101, 2-(dimethylamino)-1-(4-((3-isopropyl-2-(8-methyl-[1,2,4]triazolo[1,5-a]pyridin-6-yl)-1H-indol-5-yl)oxy)piperidin-1-yl)ethan-1-one], the IC50 in experiment [1] amounted to 2.3 nM; in experiment [2], 35.9 nM; in experiment [3], 9750 nM.

Turning to `Cc1cc(-c2[nH]c3ccc(OCC4CCN(C(=O)CN(C)C)CC4)cc3c2C(C)C)cn2ncnc12` [Example 102, 2-(dimethylamino)-1-(4-(((3-isopropyl-2-(8-methyl-[1,2,4]triazolo[1,5-a]pyridin-6-yl)-1H-indol-5-yl)oxy)methyl)piperidin-1-yl)ethan-1-one], the IC50 in experiment [1] was found to be 0.3 nM; in experiment [2], 5 nM; in experiment [3] it was 2570 nM.

For the molecule `Cc1c(-c2[nH]c3ccc(OCC4CCN(C(=O)CN(C)C)CC4)cc3c2C(C)C)cn(C)c(=O)c1C` [Example 103, 5-(5-((1-(dimethylglycyl)piperidin-4-yl)methoxy)-3-isopropyl-1H-indol-2-yl)-1,3,4-trimethylpyridin-2(1H)-one], the values for the IC50 in experiment [1], in experiment [2] and in experiment [3] were 12.3 nM, 14.9 nM and 5400 nM, respectively.
